This is an account of results in PubChem BioAssay (NCI).

Some test systems named below: CCRF-CEM leukemia; HOP-62 NSCLC; HOP-92 NSCLC; K-562 leukemia; LOX IMVI melanoma; MDA-MB-231 breast; NCI-H522 lung; OVCAR-5 ovarian; A498 renal; NCI-H226 lung.
Common to all, as to test: DTP human tumour cell line panel, 48 h

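Method: 48-hour compound exposure of cells in 96-well plates, five concentrations, linear interpolation of endpoints. Abbreviation: GI50, concentration required for 50% inhibition of growth. TGI: total growth inhibition.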 Bounds are passed on as bounds.

A word on the GI50: it is the concentration giving 50% growth inhibition. One may read the TGI as the concentration giving total growth inhibition. A lower TGI goes with more potent growth arrest.

As for `Cn1cc(CO)c2c1C(=O)C=C(N1CC1)C2=O`, the concentration for 50% growth inhibition (GI50) in the test on CCRF-CEM leukemia is 0.26 µM; in the test with HOP-62 NSCLC, under 0.01 µM; with HOP-92 NSCLC, 0.898 µM; with K-562 leukemia, 0.0224 µM; in the test on LOX IMVI melanoma, under 0.01 µM; in the test on MDA-MB-231 breast it was 2.66 µM. The concentration for 50% growth inhibition (GI50) is under 0.01 µM in the test with NCI-H522 lung and 0.0365 µM with OVCAR-5 ovarian. Also, the total growth inhibition concentration (TGI) in the test with CCRF-CEM leukemia was 11.2 µM; with HOP-62 NSCLC, under 0.0116 µM; in the test with HOP-92 NSCLC, 4 µM; in the test on K-562 leukemia it was 11.1 µM; in the test on LOX IMVI melanoma, 0.0184 µM; with MDA-MB-231 breast it was 5.96 µM. Moreover, the TGI with NCI-H522 lung is 0.0775 µM; with OVCAR-5 ovarian, 4.79 µM.

In the case of `CC(C)=CCNc1ncnc2c1ncn2C1OC(CO)C(O)C1O` (centres undefined), the GI50 with A498 renal was 0.405 µM; in the test on CCRF-CEM leukemia it was 0.456 µM; in the test on HOP-62 NSCLC, 1.3 µM; in the test on HOP-92 NSCLC, 1.14 µM; with K-562 leukemia, 0.703 µM; with LOX IMVI melanoma, 0.353 µM. Further, the GI50 was 1.52 µM in the test with MDA-MB-231 breast, 2.6 µM with NCI-H226 lung and 13.3 µM in the test on OVCAR-5 ovarian. In addition, the TGI in the test on A498 renal is 1.51 µM; in the test on CCRF-CEM leukemia it was 3.17 µM; with HOP-62 NSCLC, 6.7 µM; in the test with HOP-92 NSCLC, 3.99 µM; with K-562 leukemia it was over 380 µM; in the test on LOX IMVI melanoma it was 1.5 µM. The figures for the TGI with MDA-MB-231 breast, with NCI-H226 lung and in the test with OVCAR-5 ovarian were 9.33 µM, 7.1 µM and over 1000 µM, respectively.

Consider `COc1cc2nc(-c3ccc(Cl)cc3)cc(OCCCN3CCCCC3)c2cc1OC`, for which the GI50 was 1.4 µM in the test with A498 renal; 2.79 µM in the test with CCRF-CEM leukemia; 2.37 µM with HOP-62 NSCLC; 1.02 µM in the test with HOP-92 NSCLC; 0.666 µM with MDA-MB-231 breast; 1.12 µM in the test with NCI-H226 lung. For the same compound, the GI50 with NCI-H522 lung was 3.28 µM; in the test on OVCAR-5 ovarian it was 1.16 µM. Further, the TGI with A498 renal was 3.82 µM; with CCRF-CEM leukemia, over 100 µM; with HOP-62 NSCLC it was over 100 µM; with HOP-92 NSCLC it was 6.24 µM; in the test on MDA-MB-231 breast it was 4 µM; in the test with NCI-H226 lung it was 3.73 µM. The TGI in the test with NCI-H522 lung and with OVCAR-5 ovarian was over 100 µM each time.

For the compound `COC1(OC)CC2C(=O)N(Cc3ccccc3)C1C(S(=O)(=O)c1ccccc1)C2S(=O)(=O)c1ccccc1` (centres undefined), the TGI was 58.2 µM with A498 renal; 13.7 µM with CCRF-CEM leukemia; over 100 µM in the test on HOP-62 NSCLC; 34 µM with HOP-92 NSCLC; 46.2 µM in the test on K-562 leukemia; 21.8 µM in the test on LOX IMVI melanoma. In addition, the total growth inhibition concentration (TGI) in the test on NCI-H226 lung is 35.2 µM; with NCI-H522 lung, 5.12 µM; in the test on OVCAR-5 ovarian, 34.1 µM.

`CCC[CH2][Sn]1([CH2]CCC)[O]N=C(c2ccccc2)C(c2ccccc2)[O]1` (centres undefined): the GI50 was 2.59 µM in the test with A498 renal; 0.29 µM with CCRF-CEM leukemia; 3.24 µM in the test on HOP-62 NSCLC; 1.54 µM in the test on HOP-92 NSCLC; 0.387 µM in the test on K-562 leukemia; 1.38 µM in the test on LOX IMVI melanoma. Besides, the GI50 is 2.09 µM in the test on NCI-H226 lung, 0.362 µM with NCI-H522 lung and 2.84 µM in the test on OVCAR-5 ovarian. In addition, the TGI in the test on A498 renal was found to be 4.82 µM; in the test with CCRF-CEM leukemia it was 2.42 µM; in the test with HOP-62 NSCLC, 7.93 µM; in the test on HOP-92 NSCLC, 2.96 µM; with K-562 leukemia it was 2.38 µM; with LOX IMVI melanoma it was 2.86 µM. Further, the TGI with NCI-H226 lung came out at 5.59 µM; in the test on NCI-H522 lung, 1.47 µM; in the test with OVCAR-5 ovarian, 9.31 µM.

For the compound `COc1cnc2c(c1)C(=O)c1c-2n(CCCNC(C)C)c(=O)c2cc(Cl)ccc12`, the concentration for 50% growth inhibition (GI50) was 0.334 µM in the test with A498 renal; 0.0419 µM in the test with CCRF-CEM leukemia; 0.0709 µM with HOP-62 NSCLC; 1.05 µM in the test with HOP-92 NSCLC; 0.451 µM in the test with K-562 leukemia; 1.39 µM with MDA-MB-231 breast. In addition, the GI50 in the test with NCI-H226 lung is 1.58 µM; in the test on NCI-H522 lung, 0.133 µM; with OVCAR-5 ovarian, 1.7 µM. Further, the concentration for total growth inhibition (TGI) with A498 renal worked out at 5.27 µM; in the test on CCRF-CEM leukemia, 1.06 µM; in the test with HOP-62 NSCLC, 1.53 µM; in the test with HOP-92 NSCLC, 2.44 µM; in the test with K-562 leukemia, 2.13 µM; in the test on MDA-MB-231 breast, 3.18 µM. Also, the values for the total growth inhibition concentration (TGI) in the test with NCI-H226 lung, with NCI-H522 lung and in the test on OVCAR-5 ovarian were 30.1 µM, 1.97 µM and 3.5 µM, respectively.

As for `COc1ccc(C(C)=O)cc1N1C(=O)C2C(C1=O)C1(c3ccccc3)C(=O)C2(c2ccccc2)C(c2ccc(C)cc2)=C1c1ccc(C)cc1` (centres undefined), the GI50 in the test with CCRF-CEM leukemia was over 100 µM; in the test on HOP-62 NSCLC, over 100 µM; in the test on HOP-92 NSCLC it was 21.7 µM; in the test on K-562 leukemia, over 100 µM; with LOX IMVI melanoma it was over 100 µM; with MDA-MB-231 breast, 33.1 µM. Further, the GI50 in the test on NCI-H226 lung, in the test on NCI-H522 lung and in the test with OVCAR-5 ovarian was over 100 µM throughout. The total growth inhibition concentration (TGI) in the test on CCRF-CEM leukemia, with HOP-62 NSCLC, in the test with HOP-92 NSCLC, in the test on K-562 leukemia, in the test with LOX IMVI melanoma and in the test on MDA-MB-231 breast was over 100 µM throughout. The TGI in the test on NCI-H226 lung, in the test on NCI-H522 lung and in the test with OVCAR-5 ovarian was over 100 µM each time.

Turning to `N#Cc1c(NN)n(C2OC(CO)C(O)C2O)c2ncnc(N)c12` (centres undefined), the GI50 was 0.13 µM in the test on CCRF-CEM leukemia; 0.247 µM with HOP-62 NSCLC; 0.142 µM with HOP-92 NSCLC; 0.0181 µM with K-562 leukemia; 0.0513 µM with LOX IMVI melanoma; 0.284 µM with MDA-MB-231 breast. The GI50 was 0.496 µM in the test on NCI-H226 lung, 0.198 µM in the test on NCI-H522 lung and 0.311 µM in the test on OVCAR-5 ovarian. Besides, the concentration for total growth inhibition (TGI) with CCRF-CEM leukemia is 0.605 µM; in the test on HOP-62 NSCLC it was 2.02 µM; in the test on HOP-92 NSCLC it was 1.43 µM; in the test on K-562 leukemia, 0.176 µM; in the test on LOX IMVI melanoma, 0.328 µM; in the test on MDA-MB-231 breast, over 24.1 µM. Moreover, the results for the total growth inhibition concentration (TGI) with NCI-H226 lung, in the test with NCI-H522 lung and with OVCAR-5 ovarian were 2.91 µM, 0.469 µM and 14.4 µM, respectively.

For the compound `CN(C)N=Nc1ccc(NC=O)cc1`, the total growth inhibition concentration (TGI) in the test on A498 renal, with CCRF-CEM leukemia, with HOP-62 NSCLC, in the test with HOP-92 NSCLC, in the test with K-562 leukemia and in the test on LOX IMVI melanoma was over 100 µM in each case. Further, the concentration for total growth inhibition (TGI) in the test on MDA-MB-231 breast and in the test on OVCAR-5 ovarian was over 100 µM in each case.

With `[N-]=[N+]=NC12CC3C4CC5CC3C(C1)C(C5)C4C2`, the total growth inhibition concentration (TGI) in the test with A498 renal, in the test with CCRF-CEM leukemia, in the test on HOP-62 NSCLC, in the test on HOP-92 NSCLC, with K-562 leukemia and in the test with LOX IMVI melanoma was over 100 µM throughout. Moreover, the total growth inhibition concentration (TGI) in the test on NCI-H226 lung, with NCI-H522 lung and in the test with OVCAR-5 ovarian was over 100 µM in each case.

With `O=C(/C=C/c1ccccc1O)c1ccccc1O`, the TGI with A498 renal, with CCRF-CEM leukemia, in the test on HOP-62 NSCLC, in the test with HOP-92 NSCLC, with K-562 leukemia and in the test with LOX IMVI melanoma was over 100 µM each time. In addition, the TGI in the test on NCI-H226 lung, in the test on NCI-H522 lung and in the test with OVCAR-5 ovarian was over 100 µM throughout.

With `S=C(Nc1ccccc1)N(/N=C/C=C/c1ccccc1)c1nnc(-c2ccccc2)c(-c2ccccc2)n1`, the TGI in the test on A498 renal was over 100 µM; in the test on CCRF-CEM leukemia, over 100 µM; in the test with HOP-62 NSCLC it was over 100 µM; in the test on HOP-92 NSCLC, 83.8 µM; in the test with K-562 leukemia it was over 100 µM; in the test with LOX IMVI melanoma, over 100 µM. The TGI with NCI-H226 lung, in the test with NCI-H522 lung and in the test with OVCAR-5 ovarian was over 100 µM throughout.

On to `CC(C)N(C(=O)C12C3C4C5(C#N)C3C1(C#N)C5C42I)C(C)C` (centres undefined), for which the TGI is over 100 µM in the test on A498 renal; over 59.7 µM with CCRF-CEM leukemia; over 100 µM with HOP-62 NSCLC; over 100 µM with HOP-92 NSCLC; over 59.4 µM in the test on K-562 leukemia; over 78.8 µM in the test with LOX IMVI melanoma. Moreover, the TGI in the test with NCI-H226 lung, in the test with NCI-H522 lung and in the test on OVCAR-5 ovarian was over 100 µM in each case.

Consider `COc1cc(C(Cc2ccccc2)NC(C)=O)oc(=O)c1` (centres undefined), for which the TGI in the test on A498 renal, in the test on CCRF-CEM leukemia, in the test on HOP-62 NSCLC, with HOP-92 NSCLC, with K-562 leukemia and with LOX IMVI melanoma was over 100 µM throughout. Further, the concentration for total growth inhibition (TGI) with NCI-H226 lung, with NCI-H522 lung and in the test on OVCAR-5 ovarian was over 100 µM each time.

For the compound `CC(=O)c1cccc(NC(=O)C(=O)NNc2n[nH]c(=S)n2N)c1`, the total growth inhibition concentration (TGI) was found to be 37.7 µM in the test with A498 renal; 20.3 µM in the test on CCRF-CEM leukemia; 29.3 µM in the test on HOP-62 NSCLC; 28.7 µM in the test with HOP-92 NSCLC; 27.6 µM with K-562 leukemia; 4.57 µM with LOX IMVI melanoma. Besides, the total growth inhibition concentration (TGI) in the test with NCI-H226 lung turned out to be 20.1 µM; in the test on NCI-H522 lung, 21 µM; in the test on OVCAR-5 ovarian, 33.1 µM.

`CCCCCCCCCCCCCC1=NC(C)(C)CN1C(C)C`: the GI50 with A498 renal was 2.16 µM; in the test on CCRF-CEM leukemia it was 1.54 µM; in the test with HOP-62 NSCLC, 1.73 µM; in the test on HOP-92 NSCLC, 0.655 µM; in the test on MDA-MB-231 breast, 1.52 µM; in the test with NCI-H226 lung, 1.72 µM. In addition, the values for the GI50 in the test on NCI-H522 lung and in the test on OVCAR-5 ovarian were 1.58 µM and 1.68 µM, respectively. The concentration for total growth inhibition (TGI) with A498 renal came to 4.58 µM; with CCRF-CEM leukemia, 3.43 µM; in the test on HOP-62 NSCLC, 3.17 µM; in the test on HOP-92 NSCLC, 2.19 µM; with MDA-MB-231 breast, 2.89 µM; with NCI-H226 lung it was 3.51 µM. The results for the concentration for total growth inhibition (TGI) in the test with NCI-H522 lung and in the test on OVCAR-5 ovarian were 2.97 µM and 3.05 µM, respectively.
